One data set concerns RSV A2. The data set is described as follows: RSV plaque reduction assay. The class given is cell-based, respiratory syncytial virus (RSV). The note with it: human respiratory syncytial virus, HepG2, Hep-G2 cells, mean of at least two experiments. An outline of the steps:
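EC50 is the 50% reduction in immunostained plaque count versus virus-control wells, interpolated from variable-slope 4-parameter fits and averaged over at least two runs. Hep-G2 cells were infected with 100 PFU/well RSV A2 premixed with compound, with the inoculum removed after 2 h. Incubation continued at 37 °C for 2 days under a CMC overlay with compound.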
(In a plaque reduction assay, fewer plaques than in the control indicate reduced infectivity or spread.)

A short description of the next data set: Cell cytotoxicity (CC50). In kind it is cell-based. The note with it: human; mean of at least two experiments. Put shortly: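 Values are means of ≥2 independent runs, rounded to whole units, from 4-parameter variable-slope curve fits. Toxicity measured in Hep-G2 cells run alongside RSV plaque-reduction assays.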
A short description of the next data set: in vitro. The class given is in vitro ADME. The conditions noted are these: hepatocytes, 3 μM compound, read-out: Liver Hepatocyte Stability t1/2. Put shortly: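 Test compound at 3 μM (0.25% DMSO) incubated at 37 °C with pooled cryopreserved hepatocytes, 0.5×10^6 viable cells/mL in supplemented Williams E medium, sampled at 0-60 min. Depletion followed by LC-MS/MS; t1/2 and CLint derived from the slope of ln peak area ratio versus time.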

Data set [1] can be described thus: in vivo. In kind it is in vivo, rat (Sprague Dawley). The note with it: male SD rat; for Vd / clearance / Cmax / half-life / AUC(0-t): Sprague Dawley, in vivo; for Cmax / C 8 h: IV 1 mg/kg / PO 10 mg/kg study; for AUC(0-t): read-out: PO AUClast. Here is the method:
The pharmacokinetics of compounds were studied in vivo in rats at doses of 1 mg/kg (IV) and 10 mg/kg (PO).
Male rats [Sprague Dawley (SD)] surgically prepared with a jugular vein cannula were treated with experimental compounds via intravenous administration (IV; n=3; 1 mg/kg) or oral administration (PO; n=3; 10 mg/kg). Compounds were formulated as a solution in 40:60 dimethylacetamide:saline (IV administration) and a solution of 10% DMSO, 20% cremaphor in water (70%) (PO administration). […] Serial blood samples were collected via the cannula at 0.02, 0.08, 0.25, 0.5, 1, 2, 4, 6, 8 and 24 h post IV dosing of compound, and at 0.08, 0.25, 0.5, 1, 2, 4, 6, 8 and 24 h post oral dosing of compound, and plasma was prepared by centrifugation and stored immediately at −80° C. Samples were subsequently thawed, prepared for analysis by protein precipitation with acetonitrile, and analysed by tandem LCMS using electrospray ionisation using a matrix-matched calibration curve. PK parameters were calculated from the resulting data.

Data set [2] in a line: in vivo. In kind it is in vivo. The conditions noted are these: male Beagle dog; for Vd / clearance / Cmax / half-life / AUC(0-t): in vivo; for Cmax / C 8 h: IV 0.5 mg/kg / PO 3 or 4 mg/kg study; for AUC(0-t): read-out: PO AUClast. Here is the method:
The pharmacokinetics of compounds were studied in vivo in dogs at doses of 0.5 mg/kg (IV) and 4 mg/kg (PO).
Male Beagle dogs were treated with experimental compounds via intravenous administration (n=2; 0.5 mg/kg) or oral administration (n=2; 3 or 4 mg/kg). Compounds were formulated as a solution in 20% dimethylacetamide/80% (2-hydroxypropyl)-β-cyclodextrin (20% w/v) (IV administration) or a solution in 10% dimethylacetamide/90% (2-hydroxypropyl)-β-cyclodextrin (20% w/v) (PO administration). […] Serial blood samples were collected from the jugular vein at 0.03, 0.08, 0.25, 0.5, 1, 2, 4, 6, 8 and 24 h post IV dosing of compound, and at 0.08, 0.25, 0.5, 1, 2, 4, 6, 8 and 24 h post oral dosing of compound, and plasma was prepared by centrifugation and stored immediately at −80° C. Samples were subsequently thawed, prepared for analysis by protein precipitation with acetonitrile, and analysed by tandem LCMS using electrospray ionisation using a matrix-matched calibration curve. PK parameters were calculated from the resulting data.

Setting [3] is: IV 1 mg/kg, read-out: IV t1/2 (converted).
The mark [4] stands for this setting: PO 10 mg/kg, read-out: PO t1/2 (converted).
The mark [5] stands for this setting: IV 0.5 mg/kg, read-out: IV t1/2 (converted).
Setting [6] is: PO 3 or 4 mg/kg, read-out: PO t1/2 (converted).

Like-named read-outs stand apart in the source and are kept apart here.

`CCc1ccc(-c2nn3cccnc3c2C(=O)N[C@H]2N=C(c3ccccc3)c3cccc(F)c3NC2=O)cn1` [Example 55]: in the data set on RSV A2, the EC50 (as a rule, the concentration giving half of the maximal effect) is 45 nM. Further, the CC50 (as a rule, the concentration giving 50% cytotoxicity) in “Cell cytotoxicity (CC50)” is greater than 25000 nM. For the same compound, the half-life at 3 μM was 2.43 h in “in vitro” (dog), greater than 3.1 h in the data set “in vitro” (human) and 1.43 h in the data set “in vitro” (rat). Moreover, the Vd (usually the apparent volume that relates the amount in the body to the concentration in plasma or blood) in “in vivo [1]” (IV 1 mg/kg) came out at 1.2 L/kg; in the data set “in vivo [2]” (IV 0.5 mg/kg) it was 0.47 L/kg. Further, the clearance (as a rule, a measure of how efficiently the substance is removed, as volume per time) was 14.3 mL/min/kg in “in vivo [1]” (IV 1 mg/kg) and 1.5 mL/min/kg in the data set “in vivo [2]” (IV 0.5 mg/kg). Further, the Cmax (commonly the maximum level reached in the sampled fluid or tissue) was found to be 1420 ng/mL in the data set “in vivo [1]” and 3210 ng/mL in “in vivo [2]”. Further, the half-life in “in vivo [1]” (setting [3]) is 2 h; in “in vivo [1]” (setting [4]), 2.5 h; in the data set “in vivo [2]” (setting [5]), 5.4 h; in “in vivo [2]” (setting [6]), 6.1 h. In addition, the AUC(0-t) in “in vivo [1]” (PO 10 mg/kg) was found to be 14700 ng·h/mL; in the data set “in vivo [2]” (PO 3 or 4 mg/kg), 20900 ng·h/mL. Also, the “C 8 h” value in the data set “in vivo [1]” came out at 753 ng/mL; in “in vivo [2]” it was 720 ng/mL. Besides, the F stood at 113% in “in vivo [1]” (IV 1 mg/kg, PO 10 mg/kg) and 65% in “in vivo [2]” (IV 0.5 mg/kg, PO 3 or 4 mg/kg).
With `O=C(N[C@H]1N=C(c2ccccc2)c2ccccc2NC1=O)c1c(-c2ccccc2F)nn2cccnc12` [Example 2, 2-(2-Fluorophenyl)-N-[(3S)-2-oxo-5-phenyl-1,3-dihydro-1,4-benzodiazepin-3-yl]pyrazolo[1,5-a]pyrimidine-3-carboxamide], the EC50 with RSV A2 amounted to 39 nM. Also, the CC50 in the data set “Cell cytotoxicity (CC50)” was greater than 25000 nM. Also, the half-life at 3 μM was found to be 1.12 h in “in vitro” (dog), 145 h in “in vitro” (human) and 3.95 h in “in vitro” (rat). Further, the Vd in the data set “in vivo [1]” (IV 1 mg/kg) turned out to be 1.3 L/kg; in the data set “in vivo [2]” (IV 0.5 mg/kg) it was 0.92 L/kg. In addition, the figures for the clearance in “in vivo [1]” (IV 1 mg/kg) and in the data set “in vivo [2]” (IV 0.5 mg/kg) were 5 mL/min/kg and 1.3 mL/min/kg, respectively. Also, the Cmax in the data set “in vivo [1]” came out at 2410 ng/mL; in “in vivo [2]”, 1920 ng/mL. For the same compound, the figures for the half-life in the data set “in vivo [1]” (setting [3]), in “in vivo [2]” (setting [5]) and in “in vivo [2]” (setting [6]) were 3.1 h, 9.8 h and 11.1 h, respectively. For the same compound, the AUC(0-t) in “in vivo [1]” (PO 10 mg/kg) turned out to be 34200 ng·h/mL; in the data set “in vivo [2]” (PO 3 or 4 mg/kg) it was 22300 ng·h/mL. In addition, the “C 8 h” value is recorded as 2290 ng/mL in the data set “in vivo [1]” and 968 ng/mL in “in vivo [2]”. Also, the F was 103% in the data set “in vivo [1]” (IV 1 mg/kg, PO 10 mg/kg) and 55% in “in vivo [2]” (IV 0.5 mg/kg, PO 3 or 4 mg/kg).
As to `Cc1ccc(-c2nn3cccnc3c2C(=O)N[C@H]2N=C(c3ccccc3)c3cccc(F)c3NC2=O)cn1` [Example 50, N-[(3S)-9-fluoro-2-oxo-5-phenyl-1,3-dihydro-1,4-benzodiazepin-3-yl]-2-(6-methylpyridin-3-yl)pyrazolo[1,5-a]pyrimidine-3-carboxamide], the EC50 in the data set on RSV A2 is 99 nM. In “Cell cytotoxicity (CC50)”, the CC50 is greater than 25000 nM. Also, the values for the half-life at 3 μM in “in vitro” (dog), in the data set “in vitro” (human) and in the data set “in vitro” (rat) were greater than 3.1 h, greater than 3.1 h and 96.7 h, respectively. In addition, the Vd came out at 0.94 L/kg in “in vivo [1]” (IV 1 mg/kg) and 1.3 L/kg in the data set “in vivo [2]” (IV 0.5 mg/kg). Also, the clearance stood at 13 mL/min/kg in the data set “in vivo [1]” (IV 1 mg/kg) and 1.7 mL/min/kg in the data set “in vivo [2]” (IV 0.5 mg/kg). Also, the Cmax in the data set “in vivo [1]” worked out at 2040 ng/mL; in “in vivo [2]”, 1200 ng/mL. Moreover, the half-life in “in vivo [1]” (setting [3]) was 1.2 h; in the data set “in vivo [1]” (setting [4]), 2.4 h; in the data set “in vivo [2]” (setting [5]), 12.2 h; in the data set “in vivo [2]” (setting [6]), 16.1 h. Further, the AUC(0-t) in “in vivo [1]” (PO 10 mg/kg) amounted to 20000 ng·h/mL; in “in vivo [2]” (PO 3 or 4 mg/kg), 13300 ng·h/mL. Moreover, the figures for the “C 8 h” value in the data set “in vivo [1]” and in the data set “in vivo [2]” were 1003 ng/mL and 549 ng/mL, respectively. Besides, the F was 152% in the data set “in vivo [1]” (IV 1 mg/kg, PO 10 mg/kg) and 65% in “in vivo [2]” (IV 0.5 mg/kg, PO 3 or 4 mg/kg).

Source of the values: US11634425B2, “Pharmaceutical compounds” (priority 2019, dated 2023).
